The numbers were not newly measured in patent publication US6504031B1, “Naphthamidine urokinase inhibitors” (priority 1998, dated 2003), which cites them from elsewhere.

The structures appear in SMILES notation.

For one data set, the system named is tumor metastasis. The following applies: Anticancer Res. 1988, 8, 1373-1376.
In a further data set the test system is angiogenesis. The following applies: J. Cell Biol. 1991, 115[3 Pt 2], 402a.

As for `N=C(N)NC(=O)c1nc(Cl)c(N)nc1N` [Amiloride], the “inhibition of tumor metastasis in vivo” value with tumor metastasis is given as “inhibit tumor metastasis”. For the same compound, the “inhibition of angiogenesis in vitro” value in the data set on angiogenesis is recorded as “inhibit”.
